Five compounds from patent publication US20170065564A1, “BIS-CYCLIC GUANIDINE COMPOUND COMPOSITIONS, METHODS OF USE AND TREATMENT THEREOF” (University of South Florida, priority 2014, published 2017) can be followed below.

≈ marks a conversion by molar mass, not a printed value. Like-named read-outs stand apart in the source and are kept apart here.

In series [1] the test system is Acinetobacter baumannii. The series is described as follows: Minimal bactericidal concentration (MBC) assay. The settings on record: purified compound, read-out: MBC90. The series is classed as cell-based. The method, then:
(§1) Briefly, compound was washed by centrifugation and serial dilution, before plating on Tryptic Soy Agar (TSA). Plates were incubated for 24 hours at 37° C. and cell viability assessed by determining CFU/ml at each concentration, for every compound. Percent recovery was then determined compared to CFU/ml from no drug controls. All concentrations and controls were tested using three biological replicates, alongside two technical replicates for each data point.

In series [2] the test system is Enterobacter cloacae. The series can be described thus: Minimal bactericidal concentration (MBC) assay. The series is classed as cell-based. To be noted: purified compound, read-out: MBC90. Here is the method: as §1
The test system of series [3] is Enterococcus faecium. The series is described as follows: Minimal bactericidal concentration (MBC) assay. The series is classed as cell-based. To be noted: purified compound, read-out: MBC90. The method, then:
as §1

Series [4] has as its system Klebsiella pneumoniae. The series is described as follows: Minimal bactericidal concentration (MBC) assay. The series is classed as cell-based. The settings on record: purified compound, read-out: MBC90. The method, then:
as §1

Series [5] concerns Pseudomonas aeruginosa. The series can be described thus: Minimal bactericidal concentration (MBC) assay. Type of series: cell-based. The settings on record: purified compound, read-out: MBC90. The method, then:
as §1

The test system of series [6] is Staphylococcus aureus. The series is described as follows: Minimal bactericidal concentration (MBC) assay. Type of series: cell-based. To be noted: purified compound, read-out: MBC90. The method, then:
as §1

Series [7] deals with Acinetobacter baumannii biofilm. The series is described as follows: Minimum biofilm eradication concentration (MBEC) assay. Type of series: cell-based. To be noted: 24 h biofilm, purified compound. Here is the method:
(§2) The minimum biofilm eradication concentration (MBEC) was determined in 96-well microtiter plates as follows. Broth cultures of ESKAPE strains were grown using the conditions described above. Biofilms for each of the ESKAPE pathogens were generated from these as we have previously described for S. aureus, however human serum was not used for non-staphylococcal organisms.^44 46 For all organisms, biofilms were developed by standardizing an overnight culture into fresh media to an OD600 of 0.5 and adding 150 μl into each well of a 96-well microtiter plate. […] These cultures were incubated at 37° C. overnight alongside no drug controls. After 24 hours, the media was removed from wells and the biofilm resuspended in phosphate buffered saline (PBS). Cultures were mixed by vigorous pipetting, before being serially diluted in PBS, and plated in duplicate on relevant agar. Plates were incubated at 37° C. for 24 hours, and CFUs determined by enumeration. Each analysis was performed using three technical replicates, and antibiofilm activity was determined by comparing treated to untreated samples.

Series [8] deals with Enterobacter cloacae biofilm. The series is described as above. Type of series: cell-based. The settings on record: 24 h biofilm, purified compound. Here is the method: as §2
For series [9], the system named is Enterococcus faecium biofilm. The description is as above. The series is classed as cell-based. The settings on record: 24 h biofilm, purified compound. Here is the method: as §2
Series [10] concerns Klebsiella pneumoniae biofilm. The series is described as above. The settings on record: 24 h biofilm, purified compound. Type of series: cell-based. Here is the method:
as §2

The test system of series [11] is Pseudomonas aeruginosa biofilm. The description is as above. Type of series: cell-based. To be noted: 24 h biofilm, purified compound. Here is the method: as §2
The subject of series [12] is Staphylococcus aureus biofilm. The series is described as above. The series is classed as cell-based. To be noted: 24 h biofilm, purified compound. Here is the method:
as §2

For series [13], the system named is human A549 cells. The series can be described thus: Cytotoxicity assay (MTT). Type of series: cell-based. To be noted: for IC50: MTT, 48 hours. The method, then:
Cytotoxicity assays were performed using human A549 cells (adenocarcinomic human alveolar epithelial cells), as described by us previously.^44 Briefly, cells were cultured in F-12K Nutrient mixture (Kaighn's Modification) media containing L-glutamine, supplemented with 10% fetal bovine serum and 1% penicillin-streptomycin for 3 days at 37° and 5% CO2. Cells were then diluted to 1.0×10^5 ml^−1 using F-12K supplemented media, and added to 96 well tissue culture plates at a volume of 100 μl. Plates were incubated for 24 hours at 37° C. and 5% CO2, allowing the cells to adhere to the plastic. […] Plates were then incubated for 48 hours at 37° C. and 5% CO2. After 48 hours the media was removed, and new media added containing MTT (3-(4, 5-dimethylthiazol-2-yl)-2, 5-diphenyltetrazolium bromide), followed by incubation for four hours at 37° C. and 5% CO2. After 4 h, 50 μl of media was removed, replaced with DMSO and incubated for ten minutes at 37° C. in order to solubilize any formazan produced. A Biotek plate reader was used to measure the absorbance of formazan production at […], and IC50 values were determined for each of the five compounds. Front runners were solvated in 45% w/v (2-hydroxypropyl)-β-cyclodextrin in water for these studies; which was also used alone as a negative control. IC50 values were determined for each compound by comparison to vehicle only controls, to assess toxicity to human cells.

The test system of series [14] is S. aureus. The series can be described thus: Resistance serial passage assay. The settings on record: 8 passages, concentration doubled each day. The series is classed as cell-based, Staphylococcus aureus. The method, then:
(§3) ESKAPE pathogens were grown overnight in liquid media at 37° C. These cultures were then diluted 1:100 in fresh media, and seeded into a 96-well plate. Lead bis-cyclic guanidines or control agents were added to respective wells at half MIC concentrations. Plates were then incubated for 24 hours at 37° C., with bacteria removed from these cultures on the following day, to inoculate fresh media (1:100 dilution) containing compounds at a 2-fold higher concentrations. These were then grown overnight, and the procedure repeated for a total of eight days. […] Each experiment was performed in triplicate, yielding identical results.

Series [15] has as its system A. baumannii. The series can be described thus: Resistance serial passage assay. The settings on record: 8 passages, concentration doubled each day. The series is classed as cell-based, Acinetobacter baumannii. Here is the method:
as §3

In series [16] the test system is E. cloacae. The series is classed as cell-based, Enterobacter cloacae. To be noted: 8 passages, concentration doubled each day. The method, then: ESKAPE pathogens were grown overnight in liquid media at 37° C. These cultures were then diluted 1:100 in fresh media, and seeded into a 96-well plate. Lead bis-cyclic guanidines or control agents were added to respective wells at half MIC concentrations. […] These were then grown overnight, and the procedure repeated for a total of eight days.

The mark [17] stands for this setting: 225 μM (highest concentration tested).
[18] abbreviates: above 45 μM, at concentrations up to 225 μM.

Usually IC50 stands for the concentration at which inhibition is half-maximal. Turning to `CCCCCCCN1C(=N)N(CCCC[C@H]2CNC(=N)N2CCc2cccc(C(F)(F)F)c2)C[C@@H]1CCCC` [Compound 1], the MBC in series [1] (Acinetobacter baumannii) was 3.05 µM (≈ 1.68 µg/mL); in [2] (Enterobacter cloacae), 3.14 µM (≈ 1.73 µg/mL); in [3] (Enterococcus faecium), 1.87 µM (≈ 1.03 µg/mL); in series [4] (Klebsiella pneumoniae) it was 2.36 µM (≈ 1.3 µg/mL); in series [5] (Pseudomonas aeruginosa), 4.01 µM (≈ 2.21 µg/mL); in series [6] (Staphylococcus aureus), 3.09 µM (≈ 1.7 µg/mL). Also, the MBEC50 in series [7] was 14.82 µM; in [8], 13.02 µM; in [9] it was 38.84 µM; in [10] it was 6.97 µM; in series [11] it was 19.68 µM; in series [12], 13.87 µM. The “A549 cell recovery compared to vehicle only controls” value in [13] (setting [17]) is “around 40%”. In series [13] (Homo sapiens, A549), this compound registered an IC50 of 164 µM. In addition, the “increase in MIC after serial passage” value in [14] is given as “two-fold”.
Turning to `CCCC[C@H]1CN(CCCC[C@H]2CNC(=N)N2CCc2cccc(C(F)(F)F)c2)C(=N)N1CCCCC1CCCCC1` [Compound 2, (S)-4-butyl-3-(4-cyclohexylbutyl)-1-(4-((S)-2-imino-3-(3-(trifluoromethyl)phenethyl)imidazolidin-4-yl)butyl)imidazolidin-2-imine], the MBC in series [1] (Acinetobacter baumannii) came out at 2.83 µM (≈ 1.67 µg/mL); in series [2] (Enterobacter cloacae), 4.15 µM (≈ 2.45 µg/mL); in series [3] (Enterococcus faecium) it was 1.66 µM (≈ 0.981 µg/mL); in series [4] (Klebsiella pneumoniae), 3.98 µM (≈ 2.35 µg/mL); in [5] (Pseudomonas aeruginosa), 2.32 µM (≈ 1.37 µg/mL); in [6] (Staphylococcus aureus), 2.03 µM (≈ 1.2 µg/mL). The MBEC50 in series [7] was 15.84 µM; in series [8] it was 13.44 µM; in [9], 29.20 µM; in series [10], 4.65 µM; in series [11] it was 30.62 µM; in [12] it was 2.18 µM. In addition, the IC50 in [13] (Homo sapiens, A549) is 125 µM. Also, the “increase in MIC after serial passage” value in [14] is listed as “two-fold”; in series [15] it was 8 fold; in [16], 8 fold.
For the compound `CCCCCCCN1C(=N)N(CCCC[C@H]2CNC(=N)N2CCc2cccc(C(F)(F)F)c2)C[C@@H]1CC1CCCCC1` [Compound 7], the MBC in series [1] (Acinetobacter baumannii) was 2.16 to 3.28 µM (≈ 1.28 to 1.94 µg/mL); in series [1], 3.23 µM (≈ 1.91 µg/mL); in series [2] (Enterobacter cloacae), 6.36 µM (≈ 3.76 µg/mL); in series [3] (Enterococcus faecium), 2.16 to 3.28 µM (≈ 1.28 to 1.94 µg/mL); in series [3] it was 3.27 µM (≈ 1.93 µg/mL); in series [4] (Klebsiella pneumoniae), 2.16 to 3.28 µM (≈ 1.28 to 1.94 µg/mL). Besides, the MBC is 2.16 µM (≈ 1.28 µg/mL) in series [4], 13.7 µM (≈ 8.12 µg/mL) in [5] (Pseudomonas aeruginosa), 2.16 to 3.28 µM (≈ 1.28 to 1.94 µg/mL) in series [6] (Staphylococcus aureus) and 3.28 µM (≈ 1.94 µg/mL) in series [6]. The MBEC50 in [7] was found to be 13.10 µM; in series [8], 14.54 µM; in series [9] it was 26.30 µM; in series [10], 4.81 µM; in [11] it was 45.56 µM; in series [12], 4.35 µM. The same compound gave an IC50 in series [13] (Homo sapiens, A549) of 65.7 µM. In addition, the “A549 cell recovery compared to vehicle only controls” value in series [13] (setting [18]) was at least 33%. For the same compound, the “increase in MIC after serial passage” value was “four-fold” in series [14], 8 fold in series [15] and 8 fold in [16].
As for `CCCCCCCN1C(=N)N(CCCC[C@H]2CNC(=N)N2CCCCC2CCCCC2)C[C@@H]1CC1CCCCC1` [Compound 16], the MBC in series [1] (Acinetobacter baumannii) was 2.77 µM (≈ 1.54 µg/mL); in [2] (Enterobacter cloacae) it was 9.55 µM (≈ 5.32 µg/mL); in series [3] (Enterococcus faecium) it was 2.87 µM (≈ 1.6 µg/mL); in [4] (Klebsiella pneumoniae) it was 4.45 µM (≈ 2.48 µg/mL); in series [5] (Pseudomonas aeruginosa) it was 3.99 µM (≈ 2.22 µg/mL); in [6] (Staphylococcus aureus), 3.88 µM (≈ 2.16 µg/mL). The MBEC50 worked out at 14.13 µM in series [7], 12.68 µM in series [8], 6.28 µM in series [10] and 7.58 µM in series [12]. This compound also yielded an IC50 in [13] (Homo sapiens, A549) of over 225 µM. Also, the “increase in MIC after serial passage” value in series [14] was 16 fold; in series [15] it was 8 fold; in series [16], 8 fold.
As to `CCCCCCCN1C(=N)N(CCCC[C@H]2CNC(=N)N2CCC23CC4CC(CC(C4)C2)C3)C[C@@H]1CCCC` [Compound 19], the MBC in [1] is 4.66 µM (≈ 2.52 µg/mL); in [2], 2.70 µM (≈ 1.46 µg/mL); in [3], 3.59 µM (≈ 1.94 µg/mL); in series [4], 2.61 µM (≈ 1.41 µg/mL); in series [5], 2.77 µM (≈ 1.5 µg/mL); in [6], 2.88 µM (≈ 1.56 µg/mL). Besides, the MBEC50 in series [7] was determined as 24.07 µM; in [8] it was 15.14 µM; in series [9], 13.27 µM. Moreover, the “A549 cell recovery compared to vehicle only controls” value in series [13] (setting [17]) is reported as over 70%; in series [13] (setting [18]), at least 26%; in series [13] (concentrations up to 45 μM), over 97%. This compound returned an IC50 in series [13] of 146 µM. Moreover, the “increase in MIC after serial passage” value in [14] was determined as 16 fold; in series [15], 8 fold; in series [16] it was 8 fold.
